In the supplement of paper PMC10307832 one finds relative viability data, which are given here for 5 cell lines.

Experiment in all cases: relative viability (nuclei count vs DMSO), 5 days (fraction); higher = more cells survive
Compound in experiment [1]: COc1cccc2c1C(=O)c1c(O)c3c(c(O)c1C2=O)C[C@@](O)(C(=O)CO)C[C@@H]3O[C@H]1C[C@H](N)[C@H](O)[C@H](C)O1 [Doxorubicin] + CC(=O)Nc1cccc(-n2c(=O)n(C3CC3)c(=O)c3c(Nc4ccc(I)cc4F)n(C)c(=O)c(C)c32)c1 [Trametinib] (partner 0.02 µM)
Summed up:
(§1)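 Values are medians from duplicate plates. Each reflects relative viability, defined as the nuclei count of treated wells over that of vehicle wells. Lung cancer cell lines in 1536-well plates were pin-tool dosed one day after seeding with one drug alone or with a fixed anchor-drug dose plus five library-drug doses (not always all listed) in √10 steps, then fixed, stained and imaged at 4× after 5 days.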

Compound in experiment [2]: COC1=C(C=C(C=C1)C2=CC3=NC=CN3C(=N2)NC4=C(C=CC=N4)C(=O)N)OC [BAY61-3606] + N=C(N)NC(=N)NCCc1ccccc1 [Phenformin] (partner 250 µM)
In a few lines: as §1

Compound in experiment [3]: COc1cccc2c1C(=O)c1c(O)c3c(c(O)c1C2=O)C[C@@](O)(C(=O)CO)C[C@@H]3O[C@H]1C[C@H](N)[C@H](O)[C@H](C)O1 [Doxorubicin] + CS(=O)(=O)N1CCN(Cc2cc3nc(-c4cccc5[nH]ncc45)nc(N4CCOCC4)c3s2)CC1 [Pictilisib] (partner 1 µM)
Summed up:
as §1

Compound in experiment [4]: COc1cccc2c1C(=O)c1c(O)c3c(c(O)c1C2=O)C[C@@](O)(C(=O)CO)C[C@@H]3O[C@H]1C[C@H](N)[C@H](O)[C@H](C)O1 [Doxorubicin] + O=C(CCCCCCC(=O)Nc1ccccc1)NO [Vorinostat] (partner 1 µM)
Summed up: as §1

In the case of NCI-H520, the relative viability in experiment [1] (first compound 0.001 µM) amounted to 0.706; in experiment [1] (first compound 0.003162 µM), 0.739; in experiment [1] (first compound 0.01 µM) it was 0.616; in experiment [1] (first compound 0.03162 µM) it was 0.575; in experiment [1] (first compound 0.1 µM), 0.536; in experiment [2] (first compound 0.02 µM) it was 0.552. Further, the relative viability in experiment [2] (first compound 0.06325 µM) is 0.446; in experiment [2] (first compound 0.2 µM), 0.659; in experiment [2] (first compound 0.6325 µM) it was 0.67; in experiment [2] (first compound 2 µM) it was 0.51; in experiment [3] (first compound 0.001 µM) it was 0.264; in experiment [3] (first compound 0.003162 µM), 0.326. The relative viability in experiment [3] (first compound 0.01 µM) amounted to 0.228; in experiment [3] (first compound 0.03162 µM) it was 0.239; in experiment [3] (first compound 0.1 µM), 0.191; in experiment [4] (first compound 0.001 µM), 0.757; in experiment [4] (first compound 0.003162 µM), 0.733; in experiment [4] (first compound 0.01 µM) it was 0.788. Also, the figures for the relative viability in experiment [4] (first compound 0.03162 µM) and in experiment [4] (first compound 0.1 µM) were 0.596 and 0.564, respectively.

Turning to NCI-H661, the relative viability in experiment [1] (first compound 0.001 µM) came to 0.613; in experiment [1] (first compound 0.003162 µM), 0.604; in experiment [1] (first compound 0.01 µM) it was 0.488; in experiment [1] (first compound 0.03162 µM), 0.401; in experiment [1] (first compound 0.1 µM), 0.388; in experiment [2] (first compound 0.02 µM) it was 0.271. Further, the relative viability in experiment [2] (first compound 0.06325 µM) is 0.283; in experiment [2] (first compound 0.2 µM) it was 0.28; in experiment [2] (first compound 0.6325 µM), 0.254; in experiment [2] (first compound 2 µM) it was 0.248; in experiment [3] (first compound 0.001 µM) it was 0.399; in experiment [3] (first compound 0.003162 µM) it was 0.412. Moreover, the relative viability in experiment [3] (first compound 0.01 µM) was 0.378; in experiment [3] (first compound 0.03162 µM), 0.452; in experiment [3] (first compound 0.1 µM) it was 0.324; in experiment [4] (first compound 0.001 µM) it was 0.737; in experiment [4] (first compound 0.003162 µM) it was 0.82; in experiment [4] (first compound 0.01 µM), 0.695. For the same cell line, the relative viability came out at 0.577 in experiment [4] (first compound 0.03162 µM) and 0.495 in experiment [4] (first compound 0.1 µM).

NCI-H2009: the relative viability in experiment [1] (first compound 0.001 µM) amounted to 0.294; in experiment [1] (first compound 0.003162 µM), 0.287; in experiment [1] (first compound 0.01 µM), 0.268; in experiment [1] (first compound 0.03162 µM), 0.171; in experiment [1] (first compound 0.1 µM), 0.153; in experiment [2] (first compound 0.02 µM) it was 0.524. For the same cell line, the relative viability in experiment [2] (first compound 0.06325 µM) was 0.38; in experiment [2] (first compound 0.2 µM), 0.469; in experiment [2] (first compound 0.6325 µM) it was 0.524; in experiment [2] (first compound 2 µM), 0.424; in experiment [3] (first compound 0.001 µM), 0.712; in experiment [3] (first compound 0.003162 µM) it was 0.777. Further, the relative viability came out at 0.719 in experiment [3] (first compound 0.01 µM); 0.535 in experiment [3] (first compound 0.03162 µM); 0.282 in experiment [3] (first compound 0.1 µM); 0.682 in experiment [4] (first compound 0.001 µM); 0.77 in experiment [4] (first compound 0.003162 µM); 0.738 in experiment [4] (first compound 0.01 µM). The results for the relative viability in experiment [4] (first compound 0.03162 µM) and in experiment [4] (first compound 0.1 µM) were 0.534 and 0.329, respectively.

NCI-H1993: the relative viability in experiment [1] (first compound 0.001 µM) worked out at 0.667; in experiment [1] (first compound 0.01 µM), 0.501; in experiment [1] (first compound 0.03162 µM), 0.473; in experiment [1] (first compound 0.1 µM), 0.513; in experiment [2] (first compound 0.02 µM), 0.547; in experiment [2] (first compound 0.06325 µM), 0.502. Besides, the relative viability in experiment [2] (first compound 0.2 µM) was 0.545; in experiment [2] (first compound 0.6325 µM), 0.493; in experiment [2] (first compound 2 µM), 0.543; in experiment [3] (first compound 0.001 µM) it was 0.78; in experiment [3] (first compound 0.003162 µM) it was 0.817; in experiment [3] (first compound 0.01 µM), 0.748. Further, the relative viability in experiment [3] (first compound 0.03162 µM) was determined as 0.814; in experiment [3] (first compound 0.1 µM) it was 0.656; in experiment [4] (first compound 0.001 µM), 0.0284; in experiment [4] (first compound 0.003162 µM) it was 0.67; in experiment [4] (first compound 0.01 µM) it was 0.851; in experiment [4] (first compound 0.03162 µM), 0.509. Moreover, the relative viability in experiment [4] (first compound 0.1 µM) is 0.462.

As to HCC-78, the relative viability worked out at 0.723 in experiment [1] (first compound 0.001 µM); 0.85 in experiment [1] (first compound 0.003162 µM); 0.735 in experiment [1] (first compound 0.01 µM); 0.668 in experiment [1] (first compound 0.03162 µM); 0.66 in experiment [1] (first compound 0.1 µM); 0.769 in experiment [2] (first compound 0.02 µM). The relative viability came to 0.719 in experiment [2] (first compound 0.06325 µM); 0.688 in experiment [2] (first compound 0.2 µM); 0.848 in experiment [2] (first compound 0.6325 µM); 0.915 in experiment [2] (first compound 2 µM); 0.208 in experiment [3] (first compound 0.001 µM); 0.216 in experiment [3] (first compound 0.003162 µM). Further, the relative viability in experiment [3] (first compound 0.01 µM) came out at 0.219; in experiment [3] (first compound 0.03162 µM) it was 0.196; in experiment [3] (first compound 0.1 µM), 0.0644; in experiment [4] (first compound 0.001 µM), 0.445; in experiment [4] (first compound 0.003162 µM), 0.481; in experiment [4] (first compound 0.01 µM), 0.407. The figures for the relative viability in experiment [4] (first compound 0.03162 µM) and in experiment [4] (first compound 0.1 µM) were 0.51 and 0.414, respectively.
